Measured values taken from the supplement of paper PMC10307832.

Assays:
Assay in all cases: relative viability (nuclei count vs DMSO), 5 days (fraction); higher = more cells survive
[1] = compound: O[C@@H](COc1cccc2ncccc12)CN1CCN([C@@H]2c3ccccc3[C@@H]3[C@H](c4ccccc42)C3(F)F)CC1 [Zosuquidar] + CC(=O)c1c(C)c2cnc(Nc3ccc(N4CCNCC4)cn3)nc2n(C2CCCC2)c1=O [Palbociclib] (partner 0.5 µM)
Summary of the method: (§1)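 Relative viability was taken as the ratio of nuclei in treated wells to nuclei in vehicle wells. Lung cancer cell lines in 1536-well plates received compounds by pin tool one day after seeding, either one drug alone or a fixed anchor-drug dose plus five library-drug doses (not always all listed) in √10 steps. Nuclei were counted on 4× images after 5 days of treatment, and values are medians of duplicate plates.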

[2] = compound: C1=CC(=CC=C1NC(=S)NNC2=C(C=C(C=C2[N+](=O)[O-])C(F)(F)F)[N+](=O)[O-])F [Kobe2602] + NC(=O)Nc1cc(-c2cccc(F)c2)sc1C(=O)N[C@H]1CCCNC1 [AZD7762] (partner 0.2 µM)
Summary of the method: as §1

[3] = compound: COc1cc2nccc(Oc3ccc(NC(=O)C4(C(=O)Nc5ccc(F)cc5)CC4)cc3)c2cc1OC [Cabozantinib] + C[C@]1(O)C[C@@H](c2nc(-c3ccc4ccc(-c5ccccc5)nc4c3)c3c(N)nccn32)C1 [Linsitinib] (partner 1 µM)
Summary of the method: as §1

[4] = compound: COc1cc2nccc(Oc3ccc(NC(=O)C4(C(=O)Nc5ccc(F)cc5)CC4)cc3)c2cc1OC [Cabozantinib] + CC(=O)c1c(C)c2cnc(Nc3ccc(N4CCNCC4)cn3)nc2n(C2CCCC2)c1=O [Palbociclib] (partner 0.5 µM)
Summary of the method: as §1

Cell Line	relative viability ([1]; first compound 0.01 µM)	relative viability ([1]; first compound 0.03162 µM)	relative viability ([1]; first compound 0.1 µM)	relative viability ([1]; first compound 0.3162 µM)	relative viability ([1]; first compound 1 µM)	relative viability ([2]; first compound 0.2 µM)	relative viability ([2]; first compound 0.6325 µM)	relative viability ([2]; first compound 2 µM)	relative viability ([2]; first compound 6.325 µM)	relative viability ([2]; first compound 20 µM)	relative viability ([3]; first compound 0.02 µM)	relative viability ([3]; first compound 0.06325 µM)	relative viability ([3]; first compound 0.2 µM)	relative viability ([3]; first compound 0.6325 µM)	relative viability ([3]; first compound 2 µM)	relative viability ([4]; first compound 0.02 µM)	relative viability ([4]; first compound 0.06325 µM)	relative viability ([4]; first compound 0.2 µM)	relative viability ([4]; first compound 0.6325 µM)	relative viability ([4]; first compound 2 µM)
201T	0.349	0.343	0.365	0.354	0.337	0.614	0.619	0.603	0.611	0.799	1.08	1.04	0.993	1.01	0.973	0.352	0.342	0.332	0.371	0.384
A549	–	–	–	–	–	–	–	–	–	–	0.621	0.641	0.481	0.534	0.373	–	–	–	–	–
A-427	0.542	0.522	0.552	0.566	0.51	0.784	0.809	0.808	0.812	0.939	1.12	1.1	1.08	1.1	1.13	0.524	0.584	0.521	0.493	0.527
ABC-1	0.616	0.685	0.68	0.84	0.599	0.85	1	0.939	0.882	0.646	0.719	0.816	0.81	0.87	0.754	–	0.734	0.707	0.855	0.654
BEN	0.467	0.491	0.456	0.455	0.489	0.74	0.73	0.74	0.651	0.691	0.906	0.993	0.974	0.795	0.597	0.525	0.507	0.47	0.425	0.463
CAL-12T	0.381	0.62	0.412	0.593	0.462	0.644	0.736	0.568	0.609	0.506	0.861	0.874	0.87	0.786	0.816	0.435	0.583	0.408	0.497	0.572
COR-L23	0.295	0.328	0.301	0.354	0.314	–	–	–	–	–	1.03	1.27	0.866	0.954	0.863	0.299	0.295	0.29	0.391	0.297
COR-L 105	0.372	0.376	0.478	0.417	0.385	–	–	–	–	–	0.945	1.04	–	0.937	0.839	0.409	0.4	0.378	0.411	0.413
Calu-6	–	–	–	–	–	–	–	–	–	–	1.06	0.975	1.01	0.871	0.881	–	–	–	–	–
ChaGo-K-1	0.885	0.994	1.02	0.917	0.947	0.891	0.836	0.878	0.892	0.872	–	–	–	–	–	1.05	1.05	0.906	0.899	0.871
EBC-1	–	–	–	–	–	–	–	–	–	–	1.04	0.942	0.432	0.121	0.116	–	–	–	–	–
EKVX	0.377	0.39	–	0.411	0.375	0.724	0.701	0.736	0.722	0.865	0.955	1.11	0.806	0.989	1.09	0.397	0.41	0.307	0.394	0.544
EMC-BAC-2	0.508	0.451	0.544	0.577	0.521	1.14	1.16	1.06	1.21	1.16	0.842	0.853	0.775	0.834	0.797	0.531	0.551	0.552	0.533	0.543
EPLC-272H	0.32	0.362	0.298	0.31	0.336	0.349	0.212	0.187	0.24	0.282	1.3	1.05	1.03	1.06	1.17	0.3	0.317	0.277	0.34	0.305
H3255	0.306	0.335	0.32	0.33	0.33	0.868	0.956	0.868	0.775	0.864	1.16	0.966	–	1.01	1.1	0.317	0.351	–	0.339	0.325
HARA	0.324	0.18	0.304	0.245	0.299	0.304	0.266	0.477	0.356	0.379	1.03	1.06	0.874	0.994	0.986	0.323	0.29	0.218	0.344	0.263
HCC-15	0.721	0.689	0.702	0.723	0.715	1.03	1.2	1.02	1.17	1.43	1	0.958	0.846	0.843	0.736	0.824	0.797	0.716	0.718	0.672
HCC-44	0.974	1.04	0.944	1.02	0.956	0.951	0.952	1.04	0.982	0.892	0.807	0.795	0.726	0.64	0.573	1.04	1.05	0.998	0.977	1.03
HCC-78	0.477	0.545	–	0.492	0.462	0.7	0.675	0.748	0.588	0.774	0.428	0.423	0.194	0.261	0.193	–	0.444	0.413	0.467	0.435
HCC-366	0.322	0.402	0.355	0.394	0.338	0.22	0.269	0.312	0.183	0.421	0.772	0.649	0.703	0.637	0.554	0.491	0.503	0.399	0.364	0.451
HCC-827	0.503	0.497	0.501	0.498	0.491	0.217	0.223	0.349	0.242	0.339	0.945	1.02	–	1.03	0.972	0.415	0.535	–	0.577	0.399

Cell Line	relative viability ([1]; first compound 0.01 µM)	relative viability ([1]; first compound 0.03162 µM)	relative viability ([1]; first compound 0.1 µM)	relative viability ([1]; first compound 0.3162 µM)	relative viability ([1]; first compound 1 µM)	relative viability ([2]; first compound 0.2 µM)	relative viability ([2]; first compound 0.6325 µM)	relative viability ([2]; first compound 2 µM)	relative viability ([2]; first compound 6.325 µM)	relative viability ([2]; first compound 20 µM)	relative viability ([3]; first compound 0.02 µM)	relative viability ([3]; first compound 0.06325 µM)	relative viability ([3]; first compound 0.2 µM)	relative viability ([3]; first compound 0.6325 µM)	relative viability ([3]; first compound 2 µM)	relative viability ([4]; first compound 0.02 µM)	relative viability ([4]; first compound 0.06325 µM)	relative viability ([4]; first compound 0.2 µM)	relative viability ([4]; first compound 0.6325 µM)	relative viability ([4]; first compound 2 µM)
HOP-62	0.444	0.535	0.444	0.426	0.401	0.635	0.529	0.667	0.447	0.537	1.09	0.974	1.1	1.01	1.02	0.503	0.488	0.416	0.506	0.491
IA-LM	–	–	–	–	–	–	–	–	–	–	0.704	0.689	0.683	0.559	0.696	–	–	–	–	–
LC-2-ad	0.468	0.465	0.492	0.493	0.486	0.822	0.879	0.85	0.833	0.828	0.846	0.795	0.659	0.56	0.461	0.569	0.569	0.472	0.367	0.341
NCI-H520	0.201	0.195	0.198	0.179	0.208	–	–	–	–	–	0.923	1.05	0.938	0.796	0.815	0.266	0.245	0.268	0.228	0.203
NCI-H522	1.14	0.869	1.01	1.09	0.908	1.02	1.14	0.855	0.954	0.859	–	–	–	–	–	0.885	0.966	1.06	1.12	0.905
NCI-H596	–	–	–	–	–	1.13	0.978	1.03	0.87	1.02	1.19	1.17	1.11	0.997	0.994	–	–	–	–	–
NCI-H661	0.404	0.4	0.415	0.416	0.408	–	–	–	–	–	0.621	0.503	0.557	0.455	0.413	0.385	0.43	0.425	0.422	0.463
NCI-H1299	–	–	–	–	–	–	–	–	–	–	1.03	1	0.982	0.96	0.966	–	–	–	–	–
NCI-H1563	–	–	–	–	–	–	–	–	–	–	0.853	1.3	1.37	1.11	0.957	–	–	–	–	–
NCI-H1648	0.297	0.319	0.289	0.305	0.242	0.741	0.656	0.586	0.624	0.66	–	–	–	–	–	0.27	0.259	–	0.281	0.299
NCI-H1650	0.373	0.31	0.365	0.351	0.337	–	–	–	–	–	–	–	–	–	–	0.361	0.301	0.27	0.36	0.486
NCI-H1703	–	–	–	–	–	–	0.13	0.111	–	0.173	0.601	0.35	0.287	0.165	0.146	–	–	–	–	–
NCI-H2009	0.204	0.183	0.154	0.251	0.211	–	–	–	–	–	1.23	1.17	1.18	1.19	1.23	0.209	0.25	0.269	0.277	0.141
NCI-H2023	0.364	0.36	0.418	0.37	0.313	–	–	–	–	–	0.637	0.76	0.465	0.459	0.316	0.386	0.321	0.271	0.247	0.199
NCI-H2170	0.364	0.42	0.397	0.426	0.379	0.9	0.875	0.869	0.823	0.886	–	–	–	–	–	0.408	0.407	0.355	0.369	0.438
NCI-H2228	0.804	0.821	0.76	0.865	0.613	–	–	–	–	–	0.939	1.32	0.611	0.716	0.542	0.588	1.08	0.802	0.941	0.837
NCI-H2342	0.531	0.528	0.519	0.502	0.553	0.47	0.448	0.704	0.461	0.655	–	–	–	–	–	0.519	0.466	0.493	0.501	0.495
SK-LU-1	0.396	0.381	0.408	0.432	0.396	–	–	–	–	–	–	1.34	1.08	1.34	0.823	0.357	0.486	0.439	0.344	0.364
SK-MES-1	0.332	0.347	0.374	0.329	0.319	–	–	–	–	–	1.12	1.1	0.988	1.12	1.06	0.34	0.305	0.379	0.39	0.298
SW 900	0.568	0.558	–	0.665	0.596	0.7	0.551	0.496	0.657	0.595	–	–	–	–	–	0.585	0.601	0.436	0.55	0.492
SW 1573	0.44	0.4	0.541	0.405	0.372	–	–	–	–	–	0.702	0.799	0.842	0.604	0.63	0.422	0.456	0.364	0.39	0.308
